Assay results: patent US10421944B2, “Method for producing neural stem cells using synthetic peptide” (TOAGOSEI CO. LTD., priority 2015, dated 2019)

Tested on: CCD1079SK cells (fibroblasts from human skin tissue)
Test: Test to evaluate neural stem cell-inducing activity (fluorescent immunostaining of nestin and GFAP in fibroblasts)
Type: cell-based
Details: peptide 10 μM, 18 days of culture at 30° C., compared with peptide-free group
Experimental: Neural stem cells were induced (prepared) from fibroblasts using the neural stem cell-inducing synthetic peptide (Sample 1) obtained in Example 1 above. The test cells were CCD1079SK cells (ATCC™ CRL-2097), a cultured cell line of fibroblasts from human skin tissue. The test details were as follows.
Previously frozen CCD1079SK cells were seeded to a cell density of 1.2×10^5/well in a cell culture chamber (also called a slide chamber). The cell culture chamber had one well per slide (culture area 19 mm×44 mm). Specifically, the thawed CCD1079SK cells were suspended in ordinary Dulbecco's modified Eagle's medium (DMEM) to prepare a cell suspension with a cell density of 1.2×10^5/mL, and 1 mL of this cell suspension was seeded in the aforementioned cell culture chamber. The DMEM medium was ordinary DMEM (Wako Pure Chemical Industries, Ltd., Cat. No. 043-30085) with 10% FBS, 100 units/mL penicillin and 100 μg/mL streptomycin added thereto. The CCD1079SK cells seeded in the cell culture chamber were pre-cultured for several hours (about six hours) until the cells adhered to the bottom of the culture container in the incubator under conditions of 5% CO2, 37° C. […]

Sequence: LLLLLLVGLTAPAGKKRTLRKNDRKKR [Sample 1]
- expression of neural stem cell marker protein nestin (cells with increased quantities of nestin protein) (confocal laser microscopy (FIG. 1 vs FIG. 3)): more cells with increased quantities of nestin protein
- expression of neural stem cell marker protein GFAP (cells with increased quantities of GFAP) (confocal laser microscopy (FIG. 2 vs FIG. 4)): more cells with increased quantities of nestin protein and GFAP
